The source of these data is patent US5648244A, “Production, purification, cleavage and use of fusion peptides” (President and Fellows of Harvard College, priority 1993, dated 1997).

For the assay, the system named is yeast MATa/sst1Δ strain EY957. The experiment in a line: Yeast cell arrest (halo) assay. Type of assay: cell-based. The source says:
The mature wild-type α-Factor peptide is a 13 amino acid pheromone secreted by type […] yeast cells, which upon binding to the α-Factor receptor transmits a signal to an internally located G-protein. Once activated, this G protein triggers a series of intracellular events which lead to cellular differentiation (Elion et al., Cell, 60:649-664 (1990)). In the presence of external α-Factor, yeast cells in the early G1 phase of growth will undergo cell cycle arrest. The bioactivity of each recombinant α-Factor could easily be determined in halo assays as a region of low cell density surrounding a central disk spotted with α-Factor (FIG. 5).
Lawns of yeast MATa/sst1Δ strain EY957 were grown on YPD plates and were tested for α-Factor sensitivity as previously described (Elion et al., Cell, 60:649-664 (1990)). α-Factor peptides were dissolved in DMSO and spotted on sterile 6.5 mm paper disks. Peptide amounts were as follows: Wild-type α-Factor (αFWT)-595 pmoles; αI13-homoserine-lactone (αI13-HSl)-6,850 pmoles; αI13-homoserine (αI13-HS)-1,130 pmoles; αI13-homoserine-amide (αI13-HSA)-2,820 pmoles. The zones of inhibition (z.o.i.) for each peptide is the diameter of the low cell density region. […]
^c The zone of inhibition in mm (z.o.i.) was measured for each series […]

As to “WHWLQLKPGQPMY [αFWT, Wild-type α-factor from Sigma, 13 amino acid yeast pheromone, reference compound]”, the “CA50 (cell arrest50)” value (amount of peptide per disk required to cause 50% of cell arrest) was found to be 74 ± 5 pmol. In addition, the “z.o.i.int (y-intercept of upper asymptote of zone of inhibition curve)” value (relative maximal effect, z.o.i. vs pmoles spotted per 6.5 mm disk) came out at 29 mm.
